Results as given in publication PMC8973346, “Dissecting The role of Plasmodium metacaspase-2 in malaria gametogenesis and sporogony” (Emerging Microbes & Infections, 2022).

Target: T1, PfMCA-2 (metacaspase-2) (Plasmodium falciparum, UniProt Q8IL84)
T1 construct: gene MCA2; catalytic domain
Test: fluorogenic Z-GRR-AMC cleavage assay with recombinant enzyme, Michaelis-Menten nonlinear regression
Format: biochemical

T1 sequence (Q8IL84 1650-2020): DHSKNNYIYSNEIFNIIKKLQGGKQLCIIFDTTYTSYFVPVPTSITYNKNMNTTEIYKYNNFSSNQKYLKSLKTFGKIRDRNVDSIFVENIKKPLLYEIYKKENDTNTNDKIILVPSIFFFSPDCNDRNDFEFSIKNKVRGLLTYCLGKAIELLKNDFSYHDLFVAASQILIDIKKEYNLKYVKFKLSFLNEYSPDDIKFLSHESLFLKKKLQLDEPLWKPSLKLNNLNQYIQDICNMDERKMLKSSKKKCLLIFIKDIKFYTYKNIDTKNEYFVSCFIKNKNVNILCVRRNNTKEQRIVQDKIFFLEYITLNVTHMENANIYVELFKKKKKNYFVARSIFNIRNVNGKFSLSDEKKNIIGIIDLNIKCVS

Row | Ki | SMILES
1 | 2.1 ± 0.12 nM | CC(C)c1ccc(CNc2ccc3oc(CC4CCCCC4)nc3c2)cc1 [C-532]
2 | 1.62 ± 0.22 nM | CCCc1ccc(CNc2ccc3oc(CC4CCCCC4)nc3c2)cc1 [C-533]
